# Source: patent publication US20210115071A1, “NANOSCALE METAL-ORGANIC FRAMEWORKS FOR ENHANCED TUMOR CHEMORADIATION” (Oregon State University, priority 2019, published 2021)
# Legend:
# [1] = Drug loading / encapsulation efficiency in Hf-BDC-PEG by HPLC; type: physicochemical; details: loaded into Hf-BDC-PEG
# Experimental: (§1) Talazoparib and buparlisib were loaded into the Hf-BDC-PEG nMOFs by directly adding aliquots of the dissolved drugs (10 mg/mL in DMSO) at the desired concentrations into distilled water (2 mL) with the Hf-BDC-PEG nMOFs (approximately 5.0 mg) and stirred overnight. Unloaded drug(s) were removed by centrifugation and the supernatant was collected and quantified on HPLC to determine the concentration of unloaded talazoparib and buparlisib. A calibration curve for talazoparib and buparlisib was obtained using standard solutions at different concentrations and the curve was fitted with linear regression. Encapsulation efficiency was determined based on the ratio of the amount of drug loaded in Hf-BDC-PEG to the total amount added. The resulting nMOFs were dried under vacuum and stored until use. The influence of pH on drug release of talazoparib and buparlisib from the Hf-BDC-PEG nMOF was investigated using dialysis. TB@Hf-MOF (1.6 mg, 500 μL) was loaded into Slide-A-Lyzer MINI dialysis microtubes with a molecular weight cutoff of 2,000. The loaded samples were dialyzed against 12 mL of buffer (pH 5.5 or 7.4 PBS) with gentle stirring under ambient conditions. At designated time points of 0, 1, 2, 4, 24, 48, 72, 168, and 336 hours, sink samples (6 mL) were collected and replaced with fresh solution. Talazoparib and buparlisib concentrations were determined via HPLC, and drug release profiles were plotted as cumulative % of total drug release vs. time. All drug release measurements were performed in triplicate.
# CT26.wt cells = experiment: Free drug cytotoxicity and combination index; type: cell-based, Murine; details: for IC50 decrease in combination vs individual drug: 30:1 TMZ:Tal; for IC50: Mus musculus, CT26.WT, 72 hrs, combination as overall concentration
# Experimental: Free drug cytotoxicity was investigated with Tal and TMZ as individual and combination agents. To determine the optimal TMZ:Tal ratio, CT26.wt cells were plated at 4×10^3 cells per well in a 96-well plate and allowed to settle overnight. Cells were then treated with TMZ (0, 10, 30, 150, 300, 600 or 1000 μM), Tal (0, 1, 5, 10, or 100 μM), or TMZ:Tal at each of the concentrations combined (ratios ranging from 1000:1 to 1:10) and incubated for 72 hrs. Combination indexes (CIs) were determined for all combinations (including only those points on the curve with Fa values between 0.1 and 0.9) using CompuSyn (ComboSyn Inc., Paramus, N.J., USA).
# [2] = Drug release from TB@Hf-BDC-PEG by dialysis; type: physicochemical; details: 25° C.
# Experimental: as §1, with “Unloaded” for “Talazoparib and buparlisib were loaded into the Hf-BDC-PEG nMOFs by directly adding aliquots of the dissolved drugs (10 mg/mL in DMSO) at the desired concentrations into distilled water (2 mL) with the Hf-BDC-PEG nMOFs (approximately 5.0 mg) and stirred overnight. Unloaded”
# [3] = cited from earlier work
# 4T1 cells = details: free drug, previously reported by the inventors; read-out: individual agent IC50; cited from earlier work
# [4] = Drug loading of Hf-BDC nMOF (encapsulation efficiency); type: physicochemical; details: loaded in Hf-BDC nMOF
# Experimental: nMOFs were suspended in either 18 MΩ water (generation 1) or methanol (generation 2) at 5 mg/mL depending on colloidal stability. nMOF redispersed in water at 5 mg/mL was combined with fucoidan or dextran (both at 1 mg/mL in 18 MΩ water) at a 1:1 v/v ratio, sonicated for 1 hour, and filtered. nMOF redispersed in methanol at 5 mg/mL was combined with fucoidan or dextran (both at 1 mg/mL in 18 MΩ water) at a 1:1 v/v ratio, sonicated for 15 mins and stirred open overnight. After evaporation nMOFs were redispersed to 2.5 mg/mL nMOF in water and subsequently filtered. For drug loading, all steps remained the same except that drug dissolved in DMSO (Tal and/or TMZ or Cyanine 7.5) was added to the nMOF in water or methanol, sonicated for one hour, and washed by centrifuge twice (collecting the supernatant for quantification) before continuing with either surface coating procedure.
Encapsulation efficiency (EE %) [1],"drug released within the first 24 hours ([2]; pH 5.5, PBS)","drug release after two weeks incubation ([2]; pH 7.5, PBS)","drug released within the first 24 hours ([2]; pH 7.5, PBS) [%]",average encapsulation efficiencies (EE) [4] [%],SMILES,IC50 decrease in combination vs individual drug (CT26.wt cells) [fold],IC50 (CT26.wt cells) [µM],log P [3],IC50 (4T1 cells) [µM]
approximately 98%,–,–,–,–,"C[N+]1=C(C=CC2=CC(=CC=C3N(CCCCCC(=O)O)c4ccc5ccccc5c4C3(C)C)CCC2)C(C)(C)c2c1ccc1ccccc21.[Cl-] [Cy 7.5, cyanine 7.5 carboxylic acid]",–,–,–,–
–,–,–,–,–,"Cn1nnc2c(C(N)=O)ncn2c1=O [TMZ, temozolomide]",3.3,34,–,–
14%,~37%,~100%,24,–,Nc1cc(C(F)(F)F)c(-c2cc(N3CCOCC3)nc(N3CCOCC3)n2)cn1 [buparlisib],–,–,2.13,4.7
77%,approximately 21%,approximately 85%,11,54,Cn1ncnc1[C@H]1c2n[nH]c(=O)c3cc(F)cc(c23)N[C@@H]1c1ccc(F)cc1 [talazoparib],14.6,5.1,2.93,1.4
